Measurements as given in patent US20150164910A1, “ANTIVIRAL COMPOUNDS AND METHODS OF USE” (The Regents of the University of Califonia, priority 2012, published 2015).

What was measured:
coxsackievirus B3 (CVB3) [1] = test: Cell viability assay, prevention of cell death caused by CVB3 infection; assay type: cell-based; details: for Selectivity index: 50% Cytotoxic concentration/50% activity concentration; for IC50 / EC (peak activity): Enterovirus B; for IC50: read-out: 50% activity concentration (IC50); for EC (peak activity): HeLa-RW cells and CVB3 at low multiplicity of infection, read-out: Peak Activity Conc.
Protocol: (§1) Procedure: Enteroviruses rapidly cause cell death, and a cell viability assay was used to examine the cytotoxicity of each compound and to identify the concentration needed to prevent cell death caused by coxsackievirus B3 (CVB3) infection.
(§2) Compounds were diluted two-fold and added to wells of 384 well plate. HeLa-RW cells were then added (cytotoxicity testing), or cells and CVB3 were added to provide a low multiplicity of infection to determine concentration of peak activity or 50% maximal concentration. Selectivity index is defined as the 50% Cytotoxic concentration/50% activity concentration

CVB3-H3 = test: Plaque reduction assay, CVB3-H3 in HeLa-RW cells; assay type: cell-based, coxsackievirus B3; details: compound added 30 min before infection, CVB3-H3 MOI 1, HeLa-RW, 6 hours; log10(titer with DMSO only/titer with inhibitor)
[2] = tested on: eGFP-expressing recombinant CVB3; assay type: cell-based, coxsackievirus B3; details: for % of eGFP + cells, 0 Hr: compound added 0 hr post infection at its peak activity concentration, DMSO 26.0; for % of eGFP + cells, 0 Hr / % of eGFP + cells, 1 Hr / % of eGFP + cells, 2 Hr: read 6 hr post infection; for % of eGFP + cells, 1 Hr: compound added 1 hr post infection at its peak activity concentration, DMSO 23.7; for % of eGFP + cells, 2 Hr: compound added 2 hr post infection at its peak activity concentration, DMSO 24.8; for Inhibition of infected cells: eGFP-CVB3 m.o.i=1, compound added at time of infection, 6 hr post infection, 1-(% eGFP+ cells with compound/% with DMSO only)
[3] = tested on: viral capsid proteins of CVB3; test: Immunoblot detection of CVB3 viral capsid protein; assay type: cell-based, coxsackievirus B3; details: six hours after infection with CVB3; compound added 30 minutes before inoculation; 10 μM fluoxetine in FIG. 2
HeLa-RW cells = assay type: cell-based; details: in words
Protocol: as §1, §2

CVB3 = test: Time of addition experiment, CVB3 in HeLa cells; assay type: cell-based, coxsackievirus B3
coxsackievirus B3 (CVB3) [4] = test: Cell viability assay, prevention of cell death caused by CVB3 infection; assay type: cell-based; details: Enterovirus B, HeLa, read-out: 50% effective concentration (EC50), CVB3 replication
poliovirus 1 (PV-1) = assay type: cell-based; design: dose or concentration left out as unconfirmed; details: HeLa cells, MOI of 1, six hours (FIG. 6)
poliovirus-3 (PV-3) = assay type: cell-based; design: dose or concentration left out as unconfirmed; details: HeLa cells, MOI of 1, six hours (FIG. 6)

| SMILES | Selectivity index (coxsackievirus B3 (CVB3) [1]) | IC50 (coxsackievirus B3 (CVB3) [1]) | EC (peak activity) (coxsackievirus B3 (CVB3) [1]) | Log10 reduction of virus titer (CVB3-H3) | % of eGFP + cells, 0 Hr [2] | % of eGFP + cells, 1 Hr [2] | % of eGFP + cells, 2 Hr [2] | Inhibition of infected cells [2] | viral capsid protein detected by immunoblot [3] | cytotoxicity to HeLa cells (HeLa-RW cells) | CVB3 replication, compound added 1 hour or more after inoculation (CVB3; added 1 hour or more after inoculation (FIG. 7)) | CVB3 replication, compound added prior to inoculation (CVB3; added prior to inoculation of cultures (FIG. 7)) | EC50 (coxsackievirus B3 (CVB3) [4]) | titer of virus produced, PV-1 (poliovirus 1 (PV-1)) | activity when added 2 hours after infection begins (CVB3; virus produced six hours after infection (FIG. 7)) | titer of virus produced, PV-3 (poliovirus-3 (PV-3)) |
| --- | --- | --- | --- | --- | --- | --- | --- | --- | --- | --- | --- | --- | --- | --- | --- | --- |
| NCCC(Oc1ccc(C(F)(F)F)cc1)c1ccccc1 (stereo not shown) [Compound 74, 3-Phenyl-3-[4-(trifluoromethyl)phenoxy]-1-propanamine] | 10 | 2.53 µM | 6.25 µM | 4.7 | 0.0% | 0.0% | 0.0% | 100% | no viral protein is detected | – | – | – | – | – | – | – |
| COc1ccc(C(=O)N2CCC(C(=O)c3ccc4c(c3)OCCO4)CC2)cc1F [Compound 45, 2,3-Dihydro-1,4-benzodioxin-6-yl [1-(3-fluoro-4-methoxybenzoyl)-4-piperidinyl] methanone] | 125 | 0.2 µM | 1.56 µM | 2.0 | 8.9% | 17.0% | 20.0% | 82.1% | – | minimally cytotoxic | less potent | markedly reduced | 0.2 µM | – | – | – |
| C/C(=C\c1ccccc1)C1NC(N)=Nc2nc3ccccc3n21 (stereo not shown) [Compound 68, 4-[(1E)-1-Phenyl-1-propen-2-yl)-1,4-dihydro[1,3,5] triazino[1,2-a]benzimidazol-2-amine] | 21 | 1.21 µM | 3.13 µM | 3.7 | 0.0% | 0.0% | 0.0% | 100% | – | – | – | – | – | – | – | – |
| Cc1ccccc1NC(=O)c1cc(-c2cccs2)nc2c1cnn2C(C)C [Compound 1, 1-Isopropyl-N-(2-methylphenyl)-6-(2-thienyl)-1H-pyrazolo [3,4-b]pyridine-4-carboxamide] | 42 | 0.6 µM | 1.56 µM | 4.4 | 0.0% | 0.0% | 0.0% | 100% | – | – | – | – | – | – | – | – |
| CN1c2ccccc2C(=O)NC1c1cc2ccccc2nc1N1CCOCC1 (stereo not shown) [Compound 23, 1-Methyl-2-[2-(4-morpholinyl)-3-quinolinyl]-2,3-dihydro-4(1H)-quinazolinone] | 54 | 0.92 µM | 3.13 µM | 4.4 | 0.1% | 3.8% | 0.0% | 100% | – | – | – | – | – | – | – | – |
| O=C(Nc1nc(CN2CCCC2)cs1)c1cc(-c2cccs2)nc2ccccc12 [Compound 33, N-[4-(1-Pyrrolidinylmethyl)-1,3-thiazol-2-yl)-2-(2-thienyl)-4-quinoline-carboxamide] | 44 | 0.57 µM | 3.13 µM | 4.5 | 0.0% | 0.0% | 0.0% | 100% | – | – | – | – | – | – | – | – |
| Cl.OC(c1cc(C(F)(F)F)nc2c(C(F)(F)F)cccc12)C1CCCCN1 (stereo not shown) [Compound 22, [2,8-Bis (trifluoromethyl)-4-quinolinyl](2-piperidinyl)methanol hydrochloride (1:1), reference compound] | 6 | 1.6 µM | 3.13 µM | 4.0 | 21.1% | 18.5% | 27.9% | 100% | – | – | – | – | – | – | – | – |
| CC(C)n1ncc2c(C(=O)Nc3ccc4c(c3)OCO4)cc(-c3ccccc3)nc21 [Compound 21, N-(1,3-Benzodioxol-5-yl)-1-isopropyl-6-phenyl-1H-pyrazolo [3,4-b]pyridine-4-carboxamide] | 21 | 1.19 µM | 3.13 µM | 4.5 | 0.0% | 0.0% | 0.0% | 100% | – | – | – | – | – | – | – | – |
| CC(C)n1ncc2c(C(=O)Nc3ccccc3F)cc(-c3cccs3)nc21 [Compound 3, N-(2-Fluorophenyl)-1-isopropyl-6-(2-thienyl)-1H-pyrazolo [3,4-b]pyridine-4-carboxamide] | 175 | 1.14 µM | 3.13 µM | 4.5 | 0.0% | 0.0% | 0.0% | 100% | – | – | – | – | – | marked reduction | equivalently active | marked reduction |
| N#Cc1ccc(OCc2nc3ccccc3n2-c2ccccc2)cc1 [Compound 42, 4-[(1-Phenyl-1H-benzimidazol-2-yl)methoxy) benzonitrile] | 8 | 3 µM | 6.25 µM | 4.5 | 0.0% | 0.1% | 0.0% | 100% | – | – | – | – | – | – | – | – |
